Data from ChEMBL document CHEMBL1201862, “PubChem BioAssay data set” (2004).
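In this assay, cells in 96-well plates receive the compound at five concentrations for 48 hours. Endpoints are linearly interpolated between the surrounding concentrations. Here, GI50 denotes the concentration required for 50% inhibition of growth.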 Calls of active or inactive are those of the source. No stated cut-off is given here; in the data, active = GI50 up to about 1.1 µM and inactive = higher.

Experiments:
Assay in all cases: inhibition of tumour cell growth, NCI panel, 48 h
[1] = system: CAKI-1
[2] = system: CCRF-CEM
[3] = system: DU-145
[4] = system: HCT-116
[5] = system: HOP-62
[6] = system: HOP-92
[7] = system: KM12
[8] = system: MCF7
[9] = system: MOLT-4
[10] = system: Malme-3M
[11] = system: NCI-H226
[12] = system: NCI-H460
[13] = system: OVCAR-3
[14] = system: OVCAR-5
[15] = system: SK-MEL-5
[16] = system: SNB-75
[17] = system: T47D
[18] = system: TK-10
[19] = system: UACC-62
[20] = system: UO-31

Measured: GI50

CCc1nc2cc(/N=N/c3c(O)ccc4ccccc34)ccc2[nH]1
inactive: [1] 22.4 µM | [2] 3.47 µM | [3] 17 µM | [4] 15.5 µM | [5] 21.1 µM | [6] 20.5 µM | [7] 11.2 µM | [8] 18.4 µM | [9] 7.98 µM | [10] 18.3 µM | [11] 22.3 µM | [12] 16.1 µM | [13] 16.4 µM | [14] 17.5 µM | [15] 18.5 µM | [16] 20.6 µM | [17] 24.3 µM | [18] 18.4 µM | [19] 18.2 µM | [20] 18.8 µM

N#CC1(C#N)NC(c2cccnc2)C(C#N)(C#N)NC1c1cccnc1 (configuration not stated)
inactive: [1] > 100 µM | [2] > 100 µM | [3] > 100 µM | [4] > 100 µM | [5] > 100 µM | [6] > 100 µM | [7] > 100 µM | [8] > 100 µM | [9] > 100 µM | [10] > 100 µM | [11] > 100 µM | [13] > 100 µM | [14] > 100 µM | [15] > 100 µM | [16] 47.9 µM | [17] > 100 µM | [18] > 100 µM | [19] > 100 µM

O=c1cc(N=P(c2ccccc2)(c2ccccc2)c2ccccc2)n(-c2ccccc2)c(=O)n1-c1ccccc1
inactive: [1] 12.7 µM | [2] 8.63 µM | [3] 9.51 µM | [4] 13.3 µM | [5] 6.52 µM | [6] 9.02 µM | [7] 14.9 µM | [8] 6.03 µM | [9] 3.48 µM | [10] 11.8 µM | [11] 3.92 µM | [12] 4.15 µM | [13] 8.17 µM | [14] 23.2 µM | [15] 10.3 µM | [16] 10.1 µM | [17] 8.85 µM | [18] 15.2 µM | [19] 11.4 µM | [20] 4.92 µM

O=C1N/C(=N/N=C/c2c[nH]c3ccccc23)N/C1=C\c1c[nH]c2ccccc12
inactive: [1] 31 µM | [2] 7.74 µM | [3] 30.2 µM | [4] 19.1 µM | [5] 27 µM | [6] 16.8 µM | [7] 21 µM | [8] 16 µM | [9] 10.5 µM | [10] 15.5 µM | [11] 17 µM | [12] 36.8 µM | [13] 14.7 µM | [14] 39.4 µM | [15] 19.6 µM | [16] 28.6 µM | [17] 17.5 µM | [18] 94.2 µM | [19] 19.7 µM

COc1cc(-c2[o+]c3cc(O)cc(OC4OC(CO)C(O)C(O)C4O)c3cc2OC2OC(CO)C(O)C(O)C2O)cc(OC)c1O (configuration not stated)
inactive: [1] > 100 µM | [2] 70.1 µM | [3] > 100 µM | [4] > 100 µM | [5] > 100 µM | [6] > 100 µM | [7] > 100 µM | [8] > 100 µM | [9] > 100 µM | [10] > 100 µM | [11] > 100 µM | [12] > 100 µM | [13] > 100 µM | [14] > 100 µM | [15] > 100 µM | [16] > 100 µM | [17] > 100 µM | [18] > 100 µM | [19] > 100 µM | [20] > 100 µM

CC[C@@H]1CC[C@@H]2[C@H](CC[C@]3(C)[C@@H](OC(C)=O)CC[C@@H]23)[C@H]1C(=O)OC
inactive: [1] 35.3 µM | [2] 22.1 µM | [3] 27.4 µM | [4] 17.9 µM | [5] 24.9 µM | [6] 13.4 µM | [7] 22.5 µM | [8] 25 µM | [9] 19.5 µM | [10] 17.3 µM | [11] 18.8 µM | [12] 23 µM | [13] 19.4 µM | [14] 23.1 µM | [15] 14.6 µM | [16] 22.3 µM | [17] 21.8 µM | [18] > 100 µM | [19] 20.1 µM | [20] 33.7 µM

Nc1cccc(OCc2nc(N)nc(N)c2-c2ccc(Cl)cc2)c1
inactive: [1] 46.7 µM | [2] 13.1 µM | [3] 73.1 µM | [4] 44.7 µM | [5] > 100 µM | [6] 31.3 µM | [7] 57.3 µM | [8] 37.8 µM | [9] 26.1 µM | [10] > 100 µM | [11] 12.4 µM | [12] 32.9 µM | [13] > 100 µM | [14] > 100 µM | [15] 26.9 µM | [16] 32.2 µM | [17] 35.8 µM | [18] 31.5 µM | [19] 62.2 µM | [20] 36.3 µM
